# Results: patent US9624214B2, “Amino-substituted imidazo[1,2-a]pyridinecarboxamides and their use” (BAYER PHARMA AKTIENGESELLSCHAFT, priority 2012, dated 2017)
# Biological target: T1, recombinant guanylate cyclase reporter cell line (Rattus norvegicus, UniProt P19686+P20595)
# T1 construct: expressed in transfected cells
# T1 sequence (P20595 1-619): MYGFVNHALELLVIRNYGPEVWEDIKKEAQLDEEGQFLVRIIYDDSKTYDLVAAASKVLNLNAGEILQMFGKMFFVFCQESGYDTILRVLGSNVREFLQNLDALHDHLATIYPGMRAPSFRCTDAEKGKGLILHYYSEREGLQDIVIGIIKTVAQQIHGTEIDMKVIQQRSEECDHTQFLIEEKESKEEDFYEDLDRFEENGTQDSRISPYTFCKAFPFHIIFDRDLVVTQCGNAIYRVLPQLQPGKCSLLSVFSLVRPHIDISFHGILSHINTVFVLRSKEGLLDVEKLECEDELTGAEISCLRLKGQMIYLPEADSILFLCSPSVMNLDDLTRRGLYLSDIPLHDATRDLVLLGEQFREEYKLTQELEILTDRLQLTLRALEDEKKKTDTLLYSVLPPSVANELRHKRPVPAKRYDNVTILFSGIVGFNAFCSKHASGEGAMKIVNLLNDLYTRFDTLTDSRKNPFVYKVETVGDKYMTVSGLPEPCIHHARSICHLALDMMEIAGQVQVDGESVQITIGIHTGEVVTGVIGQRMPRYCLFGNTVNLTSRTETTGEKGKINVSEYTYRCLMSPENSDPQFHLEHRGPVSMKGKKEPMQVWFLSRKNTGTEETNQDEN
# T1 sequence (P19686 1-690): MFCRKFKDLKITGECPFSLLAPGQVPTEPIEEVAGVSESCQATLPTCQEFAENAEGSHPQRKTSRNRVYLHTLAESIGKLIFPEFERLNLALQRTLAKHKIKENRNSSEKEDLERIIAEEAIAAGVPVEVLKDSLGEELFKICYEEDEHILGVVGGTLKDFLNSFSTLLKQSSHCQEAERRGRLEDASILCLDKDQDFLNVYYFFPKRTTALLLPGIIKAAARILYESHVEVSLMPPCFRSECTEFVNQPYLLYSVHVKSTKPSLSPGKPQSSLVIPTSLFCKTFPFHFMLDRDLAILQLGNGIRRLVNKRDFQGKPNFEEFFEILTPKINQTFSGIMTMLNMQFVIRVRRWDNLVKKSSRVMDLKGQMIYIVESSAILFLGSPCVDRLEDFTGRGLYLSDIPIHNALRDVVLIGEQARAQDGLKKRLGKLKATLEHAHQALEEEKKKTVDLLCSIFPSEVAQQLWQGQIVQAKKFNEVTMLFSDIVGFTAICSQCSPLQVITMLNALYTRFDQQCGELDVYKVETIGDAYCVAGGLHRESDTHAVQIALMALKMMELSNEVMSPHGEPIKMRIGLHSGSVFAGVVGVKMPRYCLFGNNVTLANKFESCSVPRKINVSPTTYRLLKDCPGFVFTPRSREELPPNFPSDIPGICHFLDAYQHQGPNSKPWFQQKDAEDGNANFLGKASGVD
# Experiment: B-2. Action on recombinant guanylate cyclase reporter cell line
# Format: cell-based
# Conditions: MEC = minimal effective concentration; in some cases mean values from individual determinations
# Method in brief: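 Read-out: MEC (minimal effective concentration) in cells. Reporter line carries recombinant sGC. Some values are averages of single runs.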
row,Structure (SMILES),MEC
1,"CCCC(C)(N)CNC(=O)c1c(C)nc2c(OCc3c(F)cccc3F)cc(Cl)cn12 (single isomer, unassigned) [Example 245, ent-N-(2-Amino-2-methylpentyl)-6-chloro-8-[(2,6-difluorobenzyl)oxy]-2-methylimidazo[1,2-a]-pyridine-3-carboxamide]",0.10 µM
2,"Cc1nc2c(OCc3c(F)cccc3F)cc(Cl)cn2c1C(=O)NCCN(CC(F)F)C1CC1 [Example 150, 6-chloro-N-{2-[cyclopropyl(2,2-difluoroethyl)-amino]ethyl}-8-[(2,6-difluorobenzyl)oxy]-2-methylimidazo[1,2-a]pyridine-3-carboxamide]",0.10 µM
3,"Cc1nc2c(OCc3c(F)cccc3F)cc(Cl)cn2c1C(=O)NCC1CCCCN1 (racemic) [Example 118, rac-6-chloro-8-[(2,6-difluorobenzyl)oxy]-2-methyl-N-(piperidin-2-ylmethyl)imidazo[1,2-a]-pyridine-3-carboxamide]",1.00 µM
4,"Cc1nc2c(OCc3c(F)cccc3F)cc(Cl)cn2c1C(=O)NC1CNc2ccccc21 (racemic) [Example 49, rac-6-Chloro-8-[(2,6-difluorobenzyl)oxy]-N-(2,3-dihydro-1H-indol-3-yl)-2-methylimidazo[1,2-a]-pyridine-3-carboxamide]",0.30 µM
5,"Cc1nc2c(OCc3c(F)cccc3F)cccn2c1C(=O)N[C@H](C)CN1CCOCC1 [Example 170, 8-[(2,6-difluorobenzyl)oxy]-2-methyl-N-[(2R)-1-(morpholin-4-yl)propan-2-yl]imidazo[1,2-a]-pyridine-3-carboxamide]",3.00 µM

# Now from value to molecule:
row,MEC,Structure (SMILES)
1,0.30 µM,"Cc1cc(OCc2c(F)cccc2F)c2nc(C)c(C(=O)NC3C(N)C3(C)C)n2c1 (racemic) [Example 341, rac-N-(3-amino-2,2-dimethylcyclopropyl)-8-[(2,6-difluorobenzyl)oxy]-2,6-dimethylimidazo[1,2-a]pyridine-3-carboxamide (Racemate)]"
2,0.10 µM,"CCCC(C)(N)CNC(=O)c1c(C)nc2c(OCc3c(F)cccc3F)cc(Br)cn12 (stereo not drawn) [Example 306, ent-N-(2-amino-2-methylpentyl)-6-bromo-8-[(2,6-difluorobenzyl)oxy]-2-methylimidazo[1,2-a]pyridine-3-carboxamide]"
3,1.00 µM,"Cc1cc(OCc2c(F)cccc2F)c2nc(C)c(C(=O)NC(CN)c3cccc(OC(F)(F)F)c3)n2c1 (racemic) [Example 380, rac-N-{2-amino-1-[3-(trifluoromethoxy)phenyl]ethyl}-8-[(2,6-difluorobenzyl)oxy]-2,6-dimethylimidazo[1,2-a]pyridine-3-carboxamide]"
4,0.10 µM,"Cc1cc(OCc2c(F)ccc(F)c2F)c2nc(C)c(C(=O)NCC(C)(C)N)n2c1 [Example 276, N-(2-Amino-2-methylpropyl)-2,6-dimethyl-8-[(2,3,6-trifluorobenzyl)oxy]imidazo[1,2-a]pyridine-3-carboxamide]"
5,0.10 µM,"Cc1cc(OCc2c(F)cccc2F)c2nc(C)c(C(=O)NC3CCNC(C(F)(F)F)C3)n2c1 (racemic) [Example 302, rac-8-[(2,6-difluorobenzyl)oxy]-2,6-dimethyl-N-[2-(trifluoromethyl)piperidin-4-yl]imidazo[1,2-a]pyridine-3-carboxamide]"
6,3.00 µM,"CCC(C)(N)CNC(=O)c1c(C)nc2c(OCc3c(F)ccc(C4CC4)c3F)cc(C)cn12 (stereo not drawn) [Example 363, ent-N-(2-amino-2-methylbutyl)-8-[(3-cyclopropyl-2,6-difluorobenzyl)oxy]-2,6 dimethylimidazo[1,2-a]pyridine-3-carboxamide]"
7,0.65 µM,"Cc1cc(OCc2c(F)cccc2F)c2nc(C)c(C(=O)NCC3(N)CCCCC3)n2c1 [Example 307, N-[(1-aminocyclohexyl)methyl]-8-[(2,6-difluorobenzyl)oxy]-2,6-dimethylimidazo[1,2-a]pyridine-3-carboxamide]"
